From ChEMBL document CHEMBL1136163, “Conformationally-restricted analogues of efflux pump inhibitors that potentiate the activity of levofloxacin in Pseudomonas aeruginosa” (Bioorg Med Chem Lett, 2003) come the findings set out here.

The LD50 is the dose at which mortality reaches 50%. Read a high LD50 as a less toxic substance. For orientation: MIC means the lowest concentration that inhibits growth of the organism. A lower MIC goes with greater potency.

The structures appear in SMILES notation. Converted amounts (≈) assume the structure as drawn. Where a SMILES comes first, the peptide text is derived from it. The star is where a group is joined. βNA = c1ccc2cc(N*)ccc2c1

Data set [1] is described as follows: In vivo toxicity in mice i.v. It is filed as organism-based. As to conditions: mouse, iv.
The nature of data set [2]: In vivo minimum lethal dose causing lethality to >/=66% of the mice tested i.v. Conditions: mouse, iv. The format is ADME, organism-based.
In data set [3] the test system is Pseudomonas aeruginosa. Nature of the data set: In vitro minimum concentration of the efflux pump inhibitor required to reduce (potentiate) the MIC of fuoroquinolone levofloxacin 8-fold (LVFX). The format is functional.
The test system of data set [4] is Pseudomonas aeruginosa. Nature of the data set: In vitro minimum concentration of the efflux pump inhibitor required to inhibit the growth of PAM 1723 a strain of Pseudomonas aeruginosa. It is filed as functional.
A short description of data set [5]: Clearance measured in rat. It is filed as ADME, organism-based. As to conditions: in vivo, read-out: CLfree (converted).
Data set [6] can be described thus: In vivo minimum lethal dose causing lethality to >/=66% of the mice tested i.p. It is filed as ADME, organism-based. As to conditions: mouse, ip.

Take `C[C@H]1COc2c(N3CCN(C)CC3)c(F)cc3c(=O)c(C(=O)O)cn1c23.C[C@H]1COc2c(N3CCN(C)CC3)c(F)cc3c(=O)c(C(=O)O)cn1c23.O` [LEVOFLOXACIN]: the LD50 in data set [1] is more than 100 mg/kg. Also, in data set [2], the MLD was more than 100 mg/kg.

Consider `N=C(N)NCCC[C@H](NC(=O)[C@@H](N)Cc1ccccc1)C(=O)Nc1ccc2ccccc2c1` [PABETAN] (H-Phe-Arg-βNA), for which the MPC with Pseudomonas aeruginosa [3] came to 10 µg/mL. The MIC with Pseudomonas aeruginosa [4] is more than 512 µg/mL. Besides, the LD50 in data set [1] was less than 25 mg/kg. Further, in data set [2], the MLD is less than 25 mg/kg.

With `NC[C@@H]1CN[C@@H](C(=O)N[C@H](CCc2ccccc2)C(=O)Nc2ccc3ncccc3c2)C1`, in the data set on Pseudomonas aeruginosa [3], the MPC turned out to be 10 µg/mL. This molecule showed an MIC against Pseudomonas aeruginosa [4] of more than 512 µg/mL. Further, the clearance in data set [5] is 48.3 mL/min/kg. In data set [2], this molecule registered an MLD of more than 100 mg/kg.

As for `CC(C)(C)c1ccc2ncc(NC(=O)CNC(=O)[C@H](N)CCCN)cc2c1`, in the data set on Pseudomonas aeruginosa [3], the MPC turned out to be 5 µg/mL. Inhibition of growth with Pseudomonas aeruginosa [4] (MIC) required 64 µg/mL (≈ 172 µM). In data set [2], this molecule came in with an MLD of 35 mg/kg.

For `NC[C@@H]1CN[C@@H](C(=O)N[C@H](CCc2ccccc2)C(=O)Nc2cnc3ccccc3c2)C1`, the MPC in the data set on Pseudomonas aeruginosa [3] is 5 µg/mL. Also, in the data set with Pseudomonas aeruginosa [4], the MIC is more than 512 µg/mL. Further, the MLD in data set [2] came to 50 mg/kg.

For `CN(C(=O)[C@@H](N)CCc1ccccc1)[C@@H](CCCN)CSc1nc2ccccc2s1`, the MPC with Pseudomonas aeruginosa [3] is 5 µg/mL. This molecule also showed an MIC in the data set with Pseudomonas aeruginosa [4] of 128 µg/mL (≈ 289 µM). Moreover, the MLD in data set [2] was 25 mg/kg.

Regarding `C[C@H](N)C(=O)N[C@H](CCc1ccccc1)C(=O)Nc1cnc2ccccc2c1`, the MPC in the data set on Pseudomonas aeruginosa [3] is more than 40 µg/mL. In addition, the MLD in data set [2] is 125 mg/kg.

In the case of `NCCO[C@H]1CN[C@H](C(=O)N[C@H](CCc2ccccc2)C(=O)Nc2cnc3ccccc3c2)C1`, the MPC in the data set with Pseudomonas aeruginosa [3] turned out to be 10 µg/mL. Moreover, in the data set with Pseudomonas aeruginosa [4], the MIC was more than 512 µg/mL. Further, in data set [2], the MLD came out at 70 mg/kg.

With `CC(C)(C)c1ccc2ncc(NC(=O)[C@H]3C[C@H](CN)CN3)cc2c1`, the MPC with Pseudomonas aeruginosa [3] was 5 µg/mL. Further, in the data set on Pseudomonas aeruginosa [4], the MIC was 128 µg/mL (≈ 392 µM). The same molecule registered an MLD in data set [2] of more than 150 mg/kg.

In the case of `CN(C(=O)[C@@H](N)Cc1ccccc1)[C@@H](CCCN)C(=O)Nc1ccc2ccccc2c1`, the MPC in the data set on Pseudomonas aeruginosa [3] is 5 µg/mL. The MIC against Pseudomonas aeruginosa [4] amounted to 256 µg/mL (≈ 612 µM). Further, the MLD in data set [2] is less than 25 mg/kg.

On to `NCCC[C@@H](N)C(=O)N[C@H](CCc1ccccc1)C(=O)Nc1cnc2ccccc2c1`, for which, in the data set with Pseudomonas aeruginosa [3], the MPC was determined as 10 µg/mL. Also, in the data set with Pseudomonas aeruginosa [4], the MIC was more than 512 µg/mL. For the same molecule, the MLD in data set [6] is 200 mg/kg; in data set [2], less than 25 mg/kg. Besides, in data set [5], the clearance is 28.3 mL/min/kg. Also, the LD50 in data set [1] was less than 25 mg/kg.

On to `CC(C)C[C@@H](NC(=O)[C@H](N)CCCN)C(=O)Nc1cnc2ccccc2c1`, for which the MPC in the data set on Pseudomonas aeruginosa [3] is 20 µg/mL. In addition, the MLD in data set [6] was 300 mg/kg; in data set [2], 50 mg/kg.
